Results published in paper PMC12105704 (2025).

Assays:
[1] = tested on: Tte PreQ1 RNA (unlabeled) (RNA, riboswitch) CUGGGUCGCAGUAACCCCAGUUAACAAAACAAG; test: competition with CNV photocrosslinking, PAGE; conditions: PreQ1 folding buffer: 100 mM KCl, 1 mM MgCl2; PreQ1 0X-10X; dose-dependent inhibition of CNV crosslinking
[2] = tested on: Ssa-PreQ1 RNA (RNA, riboswitch) AGAGGUUCCUAGCUGAUACCCUCUAUAAAAAACUA; test: competition with bio-CNV photocrosslinking, pull-down, RNAseq; conditions: PreQ1 folding buffer: 100 mM KCl, 1 mM MgCl2; 1 µM aptamer in MCF7 total RNA, 250 µM bio-CNV, 500 µM PreQ1; enrichment abolished
[3] = tested on: Ssa-PreQ1 RNA (RNA, riboswitch) AGAGGUUCCUAGCUGAUACCCUCUAUAAAAAACUA; test: photocrosslinking, streptavidin pull-down, PAGE; conditions: PreQ1 folding buffer: 100 mM KCl, 1 mM MgCl2; covalent; 50 µM RNA, 75 µM bio-CNV, 35 min; also pulled down from MCF7 total RNA
[4] = tested on: Ssa-PreQ1 RNA (RNA, riboswitch) AGAGGUUCCUAGCUGAUACCCUCUAUAAAAAACUA; test: photocrosslinking, PAGE gel shift; conditions: PreQ1 folding buffer: 100 mM KCl, 1 mM MgCl2, covalent, 50 µM RNA, 75 µM compound, 365 nm 35 min
[5] = tested on: Tte PreQ1 RNA (unlabeled) (RNA, riboswitch) CUGGGUCGCAGUAACCCCAGUUAACAAAACAAG; test: photocrosslinking, denaturing PAGE and fluorescence; conditions: PreQ1 folding buffer: 100 mM KCl, 1 mM MgCl2; covalent; 50 µM RNA, 75 µM CNV, 365 nm; 15% crosslinked at 35 min
[6] = tested on: Cy5-labelled Tte PreQ1 RNA (RNA, riboswitch) CUGGGUCGCAGUAACCCCAGUUAACAAAACAAG; test: microscale thermophoresis; conditions: 100 mM KCl, 1 mM MgCl2; 50 mM Tris pH 7.5, 5% DMSO, RT; irradiated 365 nm 35 min before MST, covalent, apparent
[7] = tested on: Bsu PreQ1 aptamer (RNA, riboswitch) AGAGGUUCUAGCUACACCCUCUAUAAAAAACUAA; test: photocrosslinking, PAGE gel shift and MALDI-TOF; conditions: PreQ1 folding buffer: 100 mM KCl, 1 mM MgCl2; covalent; 50 µM RNA, 75 µM CNV, 365 nm 35 min, RT
[8] = tested on: Bpu PreQ1 aptamer (RNA, riboswitch) AGAGGUUCUAGCAAAACCCUCUAUAAAAAACUAA; test: photocrosslinking, PAGE gel shift and MALDI-TOF; conditions: PreQ1 folding buffer: 100 mM KCl, 1 mM MgCl2; covalent; 50 µM RNA, 75 µM CNV, 365 nm 35 min, RT
[9] = tested on: Gth PreQ1 aptamer (RNA, riboswitch) AGAGGUUUCUAGCAAAACCCUCUAUAAAAAACUA; test: photocrosslinking, PAGE gel shift and MALDI-TOF; conditions: PreQ1 folding buffer: 100 mM KCl, 1 mM MgCl2; covalent; 50 µM RNA, 75 µM CNV, 365 nm 35 min, RT
[10] = tested on: Oih PreQ1 aptamer (RNA, riboswitch) AGAGGUUCUUAGCUUCAACCCUCUAUAAAAAACUAA; test: photocrosslinking, PAGE gel shift and MALDI-TOF; conditions: PreQ1 folding buffer: 100 mM KCl, 1 mM MgCl2; covalent; 50 µM RNA, 75 µM CNV, 365 nm 35 min, RT

NCc1c[nH]c2nc(N)[nH]c(=O)c12
binding [1]: yes
binding [2]: yes

N#C/C=C/c1ccc2[nH]c3ccc(CCCOC(=O)CCCc4cn(CCOCCOCCOCCNC(=O)CCCC[C@@H]5SC[C@@H]6NC(=O)N[C@@H]65)nn4)cc3c2c1
binding [3]: yes

N#C/C=C/c1ccc2[nH]c3cccnc3c2c1
binding ([4]; minimal uncaging at 302 nm): yes

N#C/C=C/c1ccc2[nH]c3ccncc3c2c1
binding ([4]; minimal uncaging at 302 nm): yes

N#C/C=C/c1ccc2[nH]c3ccccc3c2c1
binding [5]: yes
KD [6]: 400 ± 200 nM
binding [7]: yes
binding ([4]; reversed at 302 nm): yes
binding [8]: yes
binding [9]: yes
binding [10]: yes
